From patent publication US20240148821A1, “PHARMACEUTICAL USE OF CYCLIC PEPTIDE COMPOUND” (CHUGAI SEIYAKU KABUSHIKI KAISHA, priority 2021, published 2024)
Numbered stars: 1 amine (or outer) side, 2 acyl side, 3 side chain; on linkers, the order of the positions; unused ones are H or OH. Bridge positions count the residues as written; N and C are the ends. Square brackets hold non-standard residues; d marks the D form. Peptide text beside a SMILES is read from it. * marks the point of attachment. hPhe(3-Cl-4-CF3) = N[C@@H](CCc1ccc(C(F)(F)F)c(Cl)c1)C(=O)O; hPhe(3-F,4-CF3) = N[C@@H](CCc1ccc(C(F)(F)F)c(F)c1)C(=O)O; NMePhe(4-CF3) = CN[C@@H](Cc1ccc(C(F)(F)F)cc1)C(=O)O; Pro(trans-4-Ph) = O=C(O)[C@@H]1C[C@@H](c2ccccc2)CN1; hPhe(4-CF3) = N[C@@H](CCc1ccc(C(F)(F)F)cc1)C(=O)O; NEtPhe(4-Cl) = CCN[C@@H](Cc1ccc(Cl)cc1)C(=O)O; NEtPhe(4-Me) = CCN[C@@H](Cc1ccc(C)cc1)C(=O)O; NMePhe(4-Cl) = CN[C@@H](Cc1ccc(Cl)cc1)C(=O)O; NMedβ3hAla = C[C@H](CC(=O)[*:2])N(C)[*:1]; NMeGly(cPent) = CN[C@H](C(=O)O)C1CCCC1; NMeGly(cBu) = CN[C@H](C(=O)O)C1CCC1; NMeCha = CN[C@@H](CC1CCCCC1)C(=O)O; NMeChg = CN[C@H](C(=O)O)C1CCCCC1; NMeI = CC[C@H](C)[C@H](NC)C(=O)O; NMeT = CN[C@H](C(=O)O)[C@@H](C)O; Gly(cPr) = N[C@H](C(=O)O)C1CC1; NMeD = CN[C@@H](CC(=O)O)C(=O)O; NMeL = CN[C@@H](CC(C)C)C(=O)O; Ala(CN) = N#CC[C@H](N)C(=O)O; NMeV = CN[C@H](C(=O)O)C(C)C; Trifluoroethyl = FC(F)(F)C*; d(β3hA) = C[C@@H](N)CC(=O)O; NMeS = CN[C@@H](CO)C(=O)O; Morpholide = C1CN(*)CCO1; NMeA = CN[C@@H](C)C(=O)O; NMeAib = CNC(C)(C)C(=O)O; Nle = CCCC[C@H](N)C(=O)O; Piperidide = C1CCN(*)CC1; Ac5c = NC1(C(=O)O)CCCC1; Aze = O=C(O)[C@@H]1CCN1; Sar = CNCC(=O)O; Propyl = CCC*

Tests used:
[1] = target: protein-protein interaction between Kras and SOS1 (biotin-tagged human Kras loaded with GDP, His-tagged human SOS1) (Homo sapiens (Human), UniProt P01116, G12D); experiment: Protein-protein interaction inhibition between Kras and SOS1 (KrasG12D-SOS PPI) using AlphaScreen; assay type: biochemical; details: AlphaScreen; biotin-tagged human Kras loaded with GDP, His-tagged human SOS1; read-out: KRAS G12D-SOS PPI IC50;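 note: kras produced in E. coli, Ni-coupled donor beads and streptavidin acceptor beads, excitation 680 nm with emission detected at 520–620 nm via singlet oxygen transfer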
[2] = test system: Human pancreatic cancer cell line AsPC-1 (G12D mutation Kras); experiment: AsPC-1 cell growth inhibition (AsPC-1 CGI); assay type: cell-based; details: read-out: AsPC-1 cell growth inhibition, 50% growth inhibitory concentration (IC50 value); 96 hours, CellTiter-Glo, values classified in ranges
Procedure: Test compounds were serially dilated with dimethyl sulfoxide, and 200 nL was then dispensed to a U-bottom 96-well plate using Labcyte Echo. […] The cell suspension was dispensed to a. plate containing a test compound at 100 μL per well and incubated at 37° C. in a 5% carbon dioxide gas incubator. 96 hours later, 80 μL of CellTiter-Glo (Promega) was added to each well and fluorescence was measured.

SMILES | IC50 [1] | IC50 [2]
CC[C@H](C)[C@@H]1NC(=O)[C@H](CC(C)C)N(C)C(=O)C[C@@H](C)NC(=O)[C@H](CC(C)C)N(C)C(=O)C2(CCCC2)NC(=O)[C@H](CC(C)C)N(C)C(=O)[C@H](CCc2ccc(C(F)(F)F)c(Cl)c2)NC(=O)CN(C)C(=O)[C@H](CC2CCCCC2)N(C)C(=O)CN(C)C(=O)CN(C)C1=O [Compound 217] (cyclo([Ac5c][NMeL][d(β3hA)][NMeL]I[Sar][Sar][NMeCha][Sar][hPhe(3-Cl-4-CF3)][NMeL])) | 0.066 µM | > 0.5 µM
CC[C@H](C)[C@@H]1NC(=O)[C@H](CC(C)C)N(C)C(=O)C[C@@H](C(=O)N2CCCCC2)N(C)C(=O)[C@H]([C@@H](C)O)N(C)C(=O)C2(CCCC2)NC(=O)[C@@H]2CCCN2C(=O)[C@H](CCc2ccc(C(F)(F)F)c(Cl)c2)NC(=O)CN(C)C(=O)[C@H](CC2CCCCC2)N(C)C(=O)[C@@H]2CCN2C(=O)[C@H](C)N(C)C1=O [Compound 228] ([NMeL]I[NMeA][Aze][NMeCha][Sar][hPhe(3-Cl-4-CF3)]P[Ac5c][NMeT][NMeD]-Piperidide; lactam N-11) | 0.024 µM | > 0.5 µM
CC[C@H](C)[C@@H]1NC(=O)[C@H](CC(C)C)N(C)C(=O)C[C@@H](C(=O)N2CCCCC2)N(C)C(=O)[C@H]([C@@H](C)CC)N(C)C(=O)C2(CCCC2)NC(=O)[C@@H]2CCCN2C(=O)[C@H](CCc2ccc(C(F)(F)F)c(Cl)c2)NC(=O)CN(C)C(=O)[C@H](Cc2ccc(Cl)cc2)N(C)C(=O)[C@@H]2CCN2C(=O)[C@H](C)N(C)C1=O [Compound 253] ([NMeL]I[NMeA][Aze][NMePhe(4-Cl)][Sar][hPhe(3-Cl-4-CF3)]P[Ac5c][NMeI][NMeD]-Piperidide; lactam N-11) | 0.00099 µM | ≤ 0.02 µM
CC[C@H](C)[C@@H]1NC(=O)[C@H](CC(C)C)N(C)C(=O)C[C@@H](C(=O)N2CCCCC2)N(C)C(=O)[C@H](C(C)C)N(C)C(=O)C2(CCCC2)NC(=O)[C@@H]2CCCN2C(=O)[C@H](CCc2ccc(C(F)(F)F)c(Cl)c2)NC(=O)CN(C)C(=O)[C@H](COCC(F)(F)F)N(C)C(=O)[C@@H]2CCN2C(=O)[C@H](C)N(C)C1=O [Compound 254] ([NMeL]I[NMeA][Aze][NMeS](Trifluoroethyl)[Sar][hPhe(3-Cl-4-CF3)]P[Ac5c][NMeV][NMeD]-Piperidide; lactam N-11) | 0.015 µM | > 0.5 µM
CC[C@H](C)[C@@H]1NC(=O)[C@H](CC(C)C)N(C)C(=O)C[C@@H](C(=O)N2CCCCC2)N(C)C(=O)[C@H](C2CCCCC2)N(C)C(=O)C2(CCCC2)NC(=O)[C@@H]2C[C@@H](c3ccccc3)CN2C(=O)[C@H](CCc2ccc(C(F)(F)F)c(Cl)c2)NC(=O)CN(C)C(=O)[C@H](CC2CCCCC2)N(C)C(=O)[C@@H]2CCCN2C(=O)CN(C)C1=O [Compound 255] ([NMeL]I[Sar]P[NMeCha][Sar][hPhe(3-Cl-4-CF3)][Pro(trans-4-Ph)][Ac5c][NMeChg][NMeD]-Piperidide; lactam N-11) | 0.0078 µM | > 0.5 µM
CCCC[C@@H]1NC(=O)[C@H](CCc2ccc(C(F)(F)F)c(F)c2)NC(=O)CN(C)C(=O)[C@H](Cc2ccc(Cl)cc2)N(CC)C(=O)CN(C)C(=O)CN(C)C(=O)[C@H]([C@@H](C)CC)NC(=O)[C@H](CC(C)C)N(C)C(=O)C[C@@H](C)N(C)C(=O)[C@H](CC(C)C)NC(=O)C(C)(C)N(C)C1=O [Compound 257] (cyclo(I[Sar][Sar][NEtPhe(4-Cl)][Sar][hPhe(3-F,4-CF3)][Nle][NMeAib]L[NMedβ3hAla][NMeL])) | 0.097 µM | > 0.5 µM
CC[C@H](C)[C@@H]1NC(=O)[C@H](CC(C)C)N(C)C(=O)C[C@@H](C)N(C)C(=O)[C@H](CC(C)C)NC(=O)C(C)(C)N(C)C(=O)[C@H](CC(C)C)NC(=O)[C@H](CCc2ccc(C(F)(F)F)cc2)NC(=O)CN(C)C(=O)[C@H](CC2CCCCC2)N(C)C(=O)CN(C)C(=O)CN(C)C1=O [Compound 262] (cyclo(I[Sar][Sar][NMeCha][Sar][hPhe(4-CF3)]L[NMeAib]L[NMedβ3hAla][NMeL])) | 0.043 µM | > 0.5 µM
CC[C@H](C)[C@@H]1NC(=O)[C@H](C2CCC2)N(C)C(=O)C[C@@H](C(=O)N2CCCCC2)N(C)C(=O)[C@H](C2CCCC2)N(C)C(=O)C2(CCCC2)NC(=O)[C@@H]2CCCN2C(=O)[C@H](CCc2ccc(C(F)(F)F)c(Cl)c2)NC(=O)CN(C)C(=O)[C@H](CC2CCCCC2)N(C)C(=O)[C@@H]2CCN2C(=O)[C@H](C)N(C)C1=O [Compound 270] ([NMeGly(cBu)]I[NMeA][Aze][NMeCha][Sar][hPhe(3-Cl-4-CF3)]P[Ac5c][NMeGly(cPent)][NMeD]-Piperidide; lactam N-11) | 0.00067 µM | ≤ 0.02 µM
CC[C@H](C)[C@@H]1NC(=O)[C@H](CC(C)C)N(C)C(=O)C[C@@H](C(=O)N2CCOCC2)N(C)C(=O)[C@H]([C@@H](C)CC)N(C)C(=O)C2(CCCC2)NC(=O)[C@@H]2CCCN2C(=O)[C@H](CCc2ccc(C(F)(F)F)c(Cl)c2)NC(=O)CN(C)C(=O)[C@H](Cc2ccc(C(F)(F)F)cc2)N(C)C(=O)[C@@H]2CCN2C(=O)[C@H](C)N(C)C1=O [Compound 276] ([NMeL]I[NMeA][Aze][NMePhe(4-CF3)][Sar][hPhe(3-Cl-4-CF3)]P[Ac5c][NMeI][NMeD]-Morpholide; lactam N-11) | 0.00076 µM | ≤ 0.02 µM
CC(C)C[C@H]1C(=O)N[C@@H](CC#N)C(=O)N(C)[C@@H](C)C(=O)N2CC[C@H]2C(=O)N(C)[C@@H](CC2CCCCC2)C(=O)N(C)CC(=O)N[C@@H](CCc2ccc(C(F)(F)F)c(Cl)c2)C(=O)N2CCC[C@H]2C(=O)NC2(CCCC2)C(=O)N(C)[C@@H](C(C)C)C(=O)N(C)[C@H](C(=O)N2CCCCC2)CC(=O)N1C [Compound 278] ([NMeL][Ala(CN)][NMeA][Aze][NMeCha][Sar][hPhe(3-Cl-4-CF3)]P[Ac5c][NMeV][NMeD]-Piperidide; lactam N-11) | 0.025 µM | > 0.5 µM
CC[C@H](C)[C@@H]1NC(=O)[C@H](CC(C)C)N(C)C(=O)C[C@@H](C(=O)N(C)C)N(C)C(=O)[C@H](C2CCCC2)N(C)C(=O)C2(CCCC2)NC(=O)[C@@H]2CCCN2C(=O)[C@H](CCc2ccc(C(F)(F)F)c(Cl)c2)NC(=O)CN(C)C(=O)[C@H](Cc2ccc(C)cc2)N(CC)C(=O)[C@@H]2CCN2C(=O)[C@H](C)N(C)C1=O [Compound 279] ([NMeL]I[NMeA][Aze][NEtPhe(4-Me)][Sar][hPhe(3-Cl-4-CF3)]P[Ac5c][NMeGly(cPent)][NMeD]-NMe2; lactam N-11) | 0.00099 µM | ≤ 0.02 µM
CC(C)C[C@H]1C(=O)N[C@@H](C2CC2)C(=O)N(C)[C@@H](C)C(=O)N2CC[C@H]2C(=O)N(C)[C@@H](CC2CCCCC2)C(=O)N(C)CC(=O)N[C@@H](CCc2ccc(C(F)(F)F)c(Cl)c2)C(=O)N2CCC[C@H]2C(=O)NC2(CCCC2)C(=O)N(C)[C@@H](C(C)C)C(=O)N(C)[C@H](C(=O)N2CCCCC2)CC(=O)N1C [Compound 280] ([NMeL][Gly(cPr)][NMeA][Aze][NMeCha][Sar][hPhe(3-Cl-4-CF3)]P[Ac5c][NMeV][NMeD]-Piperidide; lactam N-11) | 0.024 µM | > 0.5 µM
CCCOC[C@H]1C(=O)N(C)CC(=O)N[C@@H](CCc2ccc(C(F)(F)F)c(F)c2)C(=O)N2CCC[C@H]2C(=O)NC2(CCCC2)C(=O)N(C)[C@@H](C2CCCC2)C(=O)N(C)[C@H](C(=O)N(C)C)CC(=O)N(C)[C@@H](CC(C)C)C(=O)N[C@@H]([C@@H](C)CC)C(=O)N(C)[C@@H](C)C(=O)N2CC[C@H]2C(=O)N1C [Compound 289] ([NMeL]I[NMeA][Aze][NMeS](Propyl)[Sar][hPhe(3-F,4-CF3)]P[Ac5c][NMeGly(cPent)][NMeD]-NMe2; lactam N-11) | 0.0003 µM | ≤ 0.02 µM
